Series [1] relates to Staphylococcus aureus (ATCC 29213). Description: MIC determination (microdilution), S. aureus. Format: cell-based. To be noted: for MIC: Staphylococcus aureus, ATCC29213. Here is the method:
(§1) The crude extract and pure compounds isolated were tested against human pathogenic microorganisms, including the bacterium Staphylococcus aureus (ATCC 29213), MRSA (ATCC 33591), Candida albicans (ATCC 10213), Trichophyton rubrum (SNB-TR1) and P. aeruginosa ATCC 27853 to screen their antibacterial and antifungal activities. All ATCC strains were purchased from the Pasteur Institute. The clinical isolate was provided by Prof. Philippe Loiseau, Université Paris Sud. The ITS sequence was deposited in the NCBI GenBank database under the registry number KC692746 corresponding to SNB-TR1 strain. The tests were conducted in accordance to the reference protocols from the European Committee on Antimicrobial Susceptibility Testing. The standard microdilutions, ranging from 256 to 0.25 μg/mL were made from stock solutions prepared in DMSO (Sigma-Aldrich, France). The microplates were incubated at 35° C., and MIC values were obtained after 48 h for C. albicans, 24 h for S. aureus and 5 days for T. rubrum. The MIC values reported in Table 2 refer to the lowest concentration preventing visible growth in the wells. Vancomycin (Sigma-Aldrich, Saint-Quentin Fallavier, France) and oxacillin (Sigma-Aldrich, Saint-Quentin Fallavier, France) were used as positive controls for bacteria. Fluconazole (Sigma-Aldrich, Saint-Quentin Fallavier, France) and itraconazole (Sigma-Aldrich, Saint-Quentin Fallavier, France) were used as positive controls for fungi. All assays were conducted in duplicate.
A general note: Broth dilution looks for growth in wells or tubes with falling amounts of substance.

The next series relates to MRSA (ATCC 33591). Description: MIC determination (microdilution), MRSA. To be noted: for MIC: Staphylococcus aureus, read-out: MIC MRSA ATCC 33591. The class given is cell-based, Staphylococcus aureus. On the procedure: as §1
In series [2] the test system is Candida albicans (ATCC 10213). Description: MIC determination (microdilution), C. albicans. Format: cell-based. To be noted: for MIC: Candida albicans, ATCC10213. Here is the method:
as §1

Series [3] relates to Trichophyton rubrum (SNB-TR1). Description: MIC determination (microdilution), T. rubrum. Format: cell-based. To be noted: for MIC: Trichophyton rubrum, 120 h. On the procedure: as §1
Series [4] has as its system Human lung fibroblast cells (MRC-5). Description: Cytotoxicity evaluation, MTS assay. Format: cell-based. On the procedure:
(§2) Human lung fibroblast cells (MRC-5) were purchased from ATCC (Rockville, Md., USA) and cultured as recommended. Cell growth inhibition was determined by an MTS assay according to the manufacturer's instructions (Promega, Madison, Wis., USA). The cells were seeded in 96-well plates containing the growth medium. After 24 h of culture, samples were dissolved in DMSO (Sigma-Aldrich, France), and added to the cells (at 1 and 10 μM final concentrations). After 72 h of incubation, the reagent was added, and the absorbance at 490 nm was recorded using a plate reader. Cell viability was evaluated in comparison with untreated control cultures. Docetaxel (Taxotere) was used as positive control (IC50: 0.5 nM). All assays were conducted in triplicate.
On the technique in general: Tetrazolium assays rely on reduction of a dye to a coloured formazan, in cell work by metabolically active cells.

Series [5] in a line: Cytotoxicity evaluation, MTS assay. Format: cell-based. The following applies: human, MRC-5 human lung fibroblast cells, 72 h, read-out: MRC5 Cell Viability. Here is the method:
as §2

Series [6] concerns S. epidermis MSF G + 15 (clinical strain). Nature of the series: MIC against Gram-positive bacteria. Format: cell-based.
The next series has as its system SARM NCTC 12493. Description: MIC against Gram-positive bacteria. The class given is cell-based. To be noted: Staphylococcus aureus, NCTC12493.
A further series relates to S. aureus ATCC25923. Nature of the series: MIC against Gram-positive bacteria. The class given is cell-based. The following applies: Staphylococcus aureus.
Series [7] has as its system SARM G + 78 (clinical strain). Description: MIC against Gram-positive bacteria. Format: cell-based. The following applies: Staphylococcus aureus. On the procedure:
as §1

The subject of series [8] is SARM G + 79 (clinical strain). Description: MIC against Gram-positive bacteria. The class given is cell-based. To be noted: Staphylococcus aureus. On the procedure:
as §1

Series [9] relates to SARM G + 82 (clinical strain). Description: MIC against Gram-positive bacteria. Format: cell-based. The following applies: Staphylococcus aureus. Here is the method: as §1
Series [10] concerns SARM G + 86 (clinical strain). Nature of the series: MIC against Gram-positive bacteria. The class given is cell-based. The following applies: Staphylococcus aureus. Here is the method:
as §1

Series [11] concerns Bacillus sp. L4 210321 (clinical strain). Description: MIC against Gram-positive bacteria. The class given is cell-based.
Series [12] relates to Corynebacterium sp. L2 220321 (clinical strain). Nature of the series: MIC against Gram-positive bacteria. The class given is cell-based.
Series [13] relates to Enterococcus faecalis 29212. Nature of the series: MIC against Gram-positive bacteria. The class given is cell-based.
Series [14] concerns Enterococcus faecium van B (clinical strain). Nature of the series: MIC against Gram-positive bacteria. The class given is cell-based.
Series [15] deals with S. epidermis MSF G + 16 (clinical strain). Description: MIC against Gram-positive bacteria. Format: cell-based.
For series [16], the system named is Enterococcus faecium SI299 (clinical strain). Description: MIC against Gram-positive bacteria. Format: cell-based.
In series [17] the test system is Acinetobacter baummanii 19606. Description: MIC against Gram-negative bacteria, alone or in combination with colistin. The class given is cell-based. Here is the method:
as §1
(§3) Permeabilizers are compounds that weaken the outer membrane by enhance the permeability of bacterial cells to antimicrobial agents. [Farrag, H. A.; Abdallah, N.; Shehata, M. M. K.; Awad, E. M. J Biomed Sci, 2019, 26:69] Colistin a.k.a. polymyxin E were extensively used in clinical practice for Gram-negative organisms, but gradually withdrawn from the market due to reports of significant nephrotoxicity and neurotoxicity. [Mohamed, Y. F., Abou-Shleib, H. M., Khalil, A. M., El-Guink, N. M., & El-Nakeeb, M. A. Braz J Microbiol., 2016, 47, 381-388] In combinaison with various antibiotics, colistin is known to destabilize the outer membrane enhancing the antibacterial activity. In our study, we evaluated a combinaison of colistin at a sub-inhibitory concentration and Aspidin CB. […] (Table 5)

Series [18] has as its system Escherichia coli WT 25922. The series is described as above. The class given is cell-based. On the procedure:
as §1, §3

The nature of series [19]: ABTS radical scavenging (antioxidant) assay. Format: biochemical. The following applies: at 50 μg/ml. From the text:
P. mauritianum extracts were investigated for their antioxidant activities with using an ABTS [2,2′-azinobis-(3-ethylbenzothiazoline-6-sulfonate)] assay.

Setting [20] is: human pathogenic fungi, in words.
[21] abbreviates: colistin at sub-inhibitory concentration, in words.

In brackets after ≈: the same amount, converted by molar mass. Like-named read-outs stand apart in the source and are kept apart here.

For `CCCC(=O)C1=C(O)C(Cc2c(O)c(C)c(OC)c(C(=O)CCC)c2O)=C(O)C(C)(C)C1=O` [Compound 1, Aspidin BB], the “MIC S. aureus ATCC 29213” value in series [1] (Table 6 and text, 24 h) came to 2 µg/mL (≈ 4.34 µM). Moreover, the “Antibacterial activity against S. aureus” value in series [1] (in words) is “strongly active”. Moreover, the “MIC MRSA ATCC 33591” value in the series with MRSA (ATCC 33591) (Table 6 and text) is 1 µg/mL (≈ 2.17 µM). Further, the “Antibacterial activity against MRSA” value in the series on MRSA (ATCC 33591) (in words) is “strongly active”. Also, the “MIC C. albicans ATCC 10213” value in series [2] (Table 6, 48 h) is >256 µg/mL. Besides, the “Antifungal activity against C. albicans” value in series [2] (setting [20]) was “inactive”. Further, the “MIC T. rubrum SNB-TR1” value in [3] (Table 6, 5 days) is >256 µg/mL. Besides, in series [3] (setting [20]), the “Antifungal activity against T. rubrum” value is “inactive”. In addition, the “MRC5 Cell Viability” value in series [4] (10^−5 M, 72 h) was 86 ± 3%; in series [4] (10^−6 M, 72 h), 104 ± 1%.
Regarding `CCCCCC(=O)C1=C(O)C(C)(C)C(O)=C(Cc2c(O)c(C)c(OC)c(C(=O)CCC)c2O)C1=O` [Compound 2, Aspidin CB], the “Fold stronger activity of compound 2 vs compound 1 on S. aureus strains” value in series [1] (S. aureus and MRSA, ratio of MICs) was 4-to 8 fold. The MIC (as a rule, the least concentration at which growth counts as inhibited) is 0.25 µg/mL (≈ 0.512 µM) in series [1] (Table 6 and text, 24 h); 0.25 µg/mL (≈ 0.512 µM) in the series with MRSA (ATCC 33591) (Table 6 and text); > 256 µg/mL in series [2] (Table 6, 48 h); 256 µg/mL (≈ 524 µM) in series [3] (Table 6, 5 days); 0.5 µg/mL (≈ 1.02 µM) in series [6]; 0.5 µg/mL (≈ 1.02 µM) in the series on SARM NCTC 12493. For the same molecule, the minimal inhibitory concentration (MIC) came to 0.5 µg/mL (≈ 1.02 µM) against S. aureus ATCC25923; 0.5 µg/mL (≈ 1.02 µM) in series [7]; 1 µg/mL (≈ 2.05 µM) in series [8]; 0.5 µg/mL (≈ 1.02 µM) in series [9]; 0.5 µg/mL (≈ 1.02 µM) in series [10]; 1 µg/mL (≈ 2.05 µM) in series [11]. Further, the MIC in series [12] was 1 µg/mL (≈ 2.05 µM); in series [13] it was 8 µg/mL (≈ 16.4 µM); in [14], 0.5 µg/mL (≈ 1.02 µM); in [15], 2 µg/mL (≈ 4.09 µM); in series [16] it was 8 µg/mL (≈ 16.4 µM); in series [17] (Acinetobacter, 19606, single agent) it was > 64 µg/mL. In addition, the minimum inhibitory concentration (MIC) in [18] (Escherichia coli, WT25922, single agent) is > 64 µg/mL. The “Fold more potent than vancomycin against MRSA” value in the series with MRSA (ATCC 33591) (ratio of MICs) is 16 fold. The viability (usually a read-out of living cells in per cent, often relative to untreated cells) at 72 h amounted to 99 ± 2% in series [5] (10^−5 M) and 105 ± 2% in [5] (10^−6 M). Further, the “Cytotoxicity in MRC5 cells” value in series [4] (at 10^−5 M, in words) is recorded as “no cytotoxicity was observed”. Moreover, the “Activity against A. baumanii in combination with colistin vs alone” value in series [17] (setting [21]) is “unambiguously more active”. Further, the “Activity against E. coli in combination with colistin vs alone” value in series [18] (setting [21]) is “unambiguously more active”.
Turning to `CC(=O)O[C@@]12CO[C@@H]1C[C@H](O)[C@@]1(C)C(=O)[C@H](O)C3=C(C)[C@@H](OC(=O)[C@H](O)[C@@H](NC(=O)OC(C)(C)C)c4ccccc4)C[C@@](O)([C@@H](OC(=O)c4ccccc4)[C@H]21)C3(C)C` [Docetaxel, reference compound], the IC50 (as a rule, the concentration needed to halve the response being measured) in [4] (Homo sapiens, MRC5, positive control, 72 h, read-out: IC50 cell growth inhibition MRC-5) was 0.5 nM.
On to `OC(Cn1cncn1)(Cn1cncn1)c1ccc(F)cc1F` [Fluconazole, reference compound], for which the MIC was determined as 1 µg/mL (≈ 3.27 µM) in series [2] (Table 6, 48 h) and 4 µg/mL (≈ 13.1 µM) in series [3] (Table 6, 5 days).
As for `CCC(C)n1ncn(-c2ccc(N3CCN(c4ccc(OCC5COC(Cn6cncn6)(c6ccc(Cl)cc6Cl)O5)cc4)CC3)cc2)c1=O` (centres unmarked) [Itraconazole, reference compound], the minimal inhibitory concentration (MIC) in [2] (Table 6, 48 h) was < 0.5 µg/mL; in series [3] (Table 6, 5 days), < 0.5 µg/mL.
In [1] (Table 6 and text, 24 h), `Cc1onc(-c2ccccc2)c1C(=O)N[C@@H]1C(=O)N2[C@@H]1SC(C)(C)[C@@H]2C(=O)O` [Oxacillin, reference compound] displayed a minimum inhibitory concentration (MIC) of 0.25 µg/mL (≈ 0.623 µM).
Regarding `Cc1c(C)c2c(c(C)c1O)CCC(C)(C(=O)O)O2` (centres unmarked) [Trolox], the “% ABTS inhibition” value in series [19] was 98.0%.
For `CN[C@H](CC(C)C)C(=O)N[C@H]1C(=O)N[C@@H](CC(N)=O)C(=O)N[C@H]2C(=O)N[C@H]3C(=O)N[C@H](C(=O)N[C@H](C(=O)O)c4cc(O)cc(O)c4-c4cc3ccc4O)[C@H](O)c3ccc(c(Cl)c3)Oc3cc2cc(c3O[C@@H]2O[C@H](CO)[C@@H](O)[C@H](O)[C@H]2O[C@H]2C[C@](C)(N)[C@H](O)[C@H](C)O2)Oc2ccc(cc2Cl)[C@H]1O` [Vancomycin, reference compound], the MIC with MRSA (ATCC 33591) stood at 4 µg/mL (≈ 2.76 µM).
With Colistin [reference compound], the “MIC Acinetobacter baummanii 19606” value in series [17] (single agent) turned out to be 4 µg/mL. The “MIC Escherichia coli WT 25922” value in [18] (single agent) was 1 µg/mL.
Turning to Tocopherol, the “% ABTS inhibition” value in [19] is 97.6%.

These data come from US12178790B2, “Antibacterial compound isolated from Psiloxylon mauritianum and its derivatives” (CENTRE NATIONAL DE LA RECHERCHE SCIENTIFIQUE(CNRS), priority 2021, dated 2024).
